# Experimental data published in the supplement of paper PMC10307832.
# Columns and labels:
# Assay in all cases: relative viability (nuclei count vs DMSO), 5 days (fraction); higher = more cells survive
# SK-MES-1 = test system: SK-MES-1
# Procedure, shortened: (§1)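 Values are medians from duplicate plates. Each reflects relative viability, defined as the nuclei count of treated wells over that of vehicle wells. Lung cancer cell lines in 1536-well plates were pin-tool dosed one day after seeding with one drug alone or with a fixed anchor-drug dose plus five library-drug doses (not always all listed) in √10 steps, then fixed, stained and imaged at 4× after 5 days.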
# EKVX = test system: EKVX
# Procedure, shortened: as §1
# CAL-12T = test system: CAL-12T
# Procedure, shortened: as §1
# NCI-H2228 = test system: NCI-H2228
# Procedure, shortened: as §1
# H3255 = test system: H3255
# Procedure, shortened: as §1
# ABC-1 = test system: ABC-1
# Procedure, shortened: as §1
# NCI-H460 = test system: NCI-H460
# Procedure, shortened: as §1
# NCI-H2085 = test system: NCI-H2085
# Procedure, shortened: as §1
# NCI-H322M = test system: NCI-H322M
# Procedure, shortened: as §1
# NCI-H2342 = test system: NCI-H2342
# Procedure, shortened: as §1
# HCC-366 = test system: HCC-366
# Procedure, shortened: as §1
# EPLC-272H = test system: EPLC-272H
# Procedure, shortened: as §1
# NCI-H2087 = test system: NCI-H2087
# Procedure, shortened: as §1
# NCI-H441 = test system: NCI-H441
# Procedure, shortened: as §1
# ChaGo-K-1 = test system: ChaGo-K-1
# Procedure, shortened: as §1
# COR-L 105 = test system: COR-L 105
# Procedure, shortened: as §1
# NCI-H1975 = test system: NCI-H1975
# Procedure, shortened: as §1
# HCC-827 = test system: HCC-827
# Procedure, shortened: as §1
# NCI-H2009 = test system: NCI-H2009
# Procedure, shortened: as §1
# NCI-H1355 = test system: NCI-H1355
# Procedure, shortened: as §1
# NCI-H1993 = test system: NCI-H1993
# Procedure, shortened: as §1
structure (smiles),measurement,setting,value
CCNC(=O)c1noc(-c2cc(C(C)C)c(O)cc2O)c1-c1ccc(CN2CCOCC2)cc1 [Luminespib] + COc1cc2c(Oc3ccc(NC(=O)C4(C(=O)Nc5ccc(F)cc5)CC4)cc3F)ccnc2cc1OCCCN1CCOCC1 [Foretinib] (partner 0.25 µM),relative viability,SK-MES-1; first compound 0.002 µM,0.829
same,relative viability,SK-MES-1; first compound 0.006325 µM,0.804
same,relative viability,SK-MES-1; first compound 0.02 µM,0.777
same,relative viability,SK-MES-1; first compound 0.06325 µM,0.138
same,relative viability,SK-MES-1; first compound 0.2 µM,0.156
same,relative viability,EKVX; first compound 0.002 µM,0.75
same,relative viability,EKVX; first compound 0.006325 µM,0.453
same,relative viability,EKVX; first compound 0.06325 µM,0.815
same,relative viability,EKVX; first compound 0.2 µM,0.108
same,relative viability,CAL-12T; first compound 0.002 µM,1.25
same,relative viability,CAL-12T; first compound 0.006325 µM,1.15
same,relative viability,CAL-12T; first compound 0.02 µM,0.824
same,relative viability,CAL-12T; first compound 0.06325 µM,0.127
same,relative viability,CAL-12T; first compound 0.2 µM,0.128
same,relative viability,NCI-H2228; first compound 0.002 µM,0.776
same,relative viability,NCI-H2228; first compound 0.006325 µM,0.844
same,relative viability,NCI-H2228; first compound 0.02 µM,0.692
same,relative viability,NCI-H2228; first compound 0.06325 µM,0.111
same,relative viability,NCI-H2228; first compound 0.2 µM,0.117
same,relative viability,H3255; first compound 0.002 µM,0.785
same,relative viability,H3255; first compound 0.006325 µM,0.821
same,relative viability,H3255; first compound 0.06325 µM,0.833
same,relative viability,H3255; first compound 0.2 µM,0.329
same,relative viability,ABC-1; first compound 0.002 µM,1.08
same,relative viability,ABC-1; first compound 0.006325 µM,0.881
same,relative viability,ABC-1; first compound 0.02 µM,0.859
same,relative viability,ABC-1; first compound 0.06325 µM,0.583
same,relative viability,ABC-1; first compound 0.2 µM,0.206
same,relative viability,NCI-H460; first compound 0.002 µM,1.01
same,relative viability,NCI-H460; first compound 0.006325 µM,1.07
same,relative viability,NCI-H460; first compound 0.02 µM,0.957
same,relative viability,NCI-H460; first compound 0.06325 µM,0.0285
same,relative viability,NCI-H460; first compound 0.2 µM,0.0276
same,relative viability,NCI-H2085; first compound 0.002 µM,1.19
same,relative viability,NCI-H2085; first compound 0.006325 µM,0.896
same,relative viability,NCI-H2085; first compound 0.02 µM,1.07
same,relative viability,NCI-H2085; first compound 0.06325 µM,0.603
same,relative viability,NCI-H2085; first compound 0.2 µM,0.457
same,relative viability,NCI-H322M; first compound 0.002 µM,0.932
same,relative viability,NCI-H322M; first compound 0.006325 µM,0.998
same,relative viability,NCI-H322M; first compound 0.02 µM,0.795
same,relative viability,NCI-H322M; first compound 0.06325 µM,0.323
same,relative viability,NCI-H322M; first compound 0.2 µM,0.3
same,relative viability,NCI-H2342; first compound 0.002 µM,1.02
same,relative viability,NCI-H2342; first compound 0.006325 µM,0.991
same,relative viability,NCI-H2342; first compound 0.02 µM,0.656
same,relative viability,NCI-H2342; first compound 0.06325 µM,0.786
same,relative viability,NCI-H2342; first compound 0.2 µM,0.543
same,relative viability,HCC-366; first compound 0.002 µM,0.925
same,relative viability,HCC-366; first compound 0.006325 µM,0.921
same,relative viability,HCC-366; first compound 0.02 µM,0.921
same,relative viability,HCC-366; first compound 0.06325 µM,0.887
same,relative viability,HCC-366; first compound 0.2 µM,0.199
same,relative viability,EPLC-272H; first compound 0.002 µM,0.74
same,relative viability,EPLC-272H; first compound 0.006325 µM,0.666
same,relative viability,EPLC-272H; first compound 0.06325 µM,0.625
same,relative viability,EPLC-272H; first compound 0.2 µM,0.0989
same,relative viability,NCI-H2087; first compound 0.002 µM,1.11
same,relative viability,NCI-H2087; first compound 0.006325 µM,1.1
same,relative viability,NCI-H2087; first compound 0.02 µM,1.37
same,relative viability,NCI-H2087; first compound 0.06325 µM,0.118
same,relative viability,NCI-H2087; first compound 0.2 µM,0.113
same,relative viability,NCI-H441; first compound 0.002 µM,0.927
same,relative viability,NCI-H441; first compound 0.006325 µM,0.92
same,relative viability,NCI-H441; first compound 0.02 µM,1.51
same,relative viability,NCI-H441; first compound 0.06325 µM,0.196
same,relative viability,NCI-H441; first compound 0.2 µM,0.149
same,relative viability,ChaGo-K-1; first compound 0.002 µM,0.889
same,relative viability,ChaGo-K-1; first compound 0.006325 µM,0.92
same,relative viability,ChaGo-K-1; first compound 0.02 µM,1.02
same,relative viability,ChaGo-K-1; first compound 0.06325 µM,0.37
same,relative viability,ChaGo-K-1; first compound 0.2 µM,0.299
same,relative viability,COR-L 105; first compound 0.002 µM,0.885
same,relative viability,COR-L 105; first compound 0.006325 µM,1.04
same,relative viability,COR-L 105; first compound 0.02 µM,1.07
same,relative viability,COR-L 105; first compound 0.06325 µM,0.436
same,relative viability,COR-L 105; first compound 0.2 µM,0.273
same,relative viability,NCI-H1975; first compound 0.002 µM,1.07
same,relative viability,NCI-H1975; first compound 0.006325 µM,0.97
same,relative viability,NCI-H1975; first compound 0.02 µM,0.615
same,relative viability,NCI-H1975; first compound 0.06325 µM,0.0994
same,relative viability,NCI-H1975; first compound 0.2 µM,0.108
same,relative viability,HCC-827; first compound 0.002 µM,1.06
same,relative viability,HCC-827; first compound 0.006325 µM,0.971
same,relative viability,HCC-827; first compound 0.02 µM,0.869
same,relative viability,HCC-827; first compound 0.06325 µM,0.692
same,relative viability,HCC-827; first compound 0.2 µM,0.152
same,relative viability,NCI-H2009; first compound 0.002 µM,1.22
same,relative viability,NCI-H2009; first compound 0.006325 µM,1.16
same,relative viability,NCI-H2009; first compound 0.02 µM,1.33
same,relative viability,NCI-H2009; first compound 0.06325 µM,0.298
same,relative viability,NCI-H2009; first compound 0.2 µM,0.0898
same,relative viability,NCI-H1355; first compound 0.002 µM,1.02
same,relative viability,NCI-H1355; first compound 0.006325 µM,0.912
same,relative viability,NCI-H1355; first compound 0.02 µM,0.671
same,relative viability,NCI-H1355; first compound 0.06325 µM,0.927
same,relative viability,NCI-H1355; first compound 0.2 µM,0.622
same,relative viability,NCI-H1993; first compound 0.002 µM,0.772
same,relative viability,NCI-H1993; first compound 0.006325 µM,0.779
same,relative viability,NCI-H1993; first compound 0.02 µM,0.632
same,relative viability,NCI-H1993; first compound 0.06325 µM,0.549
same,relative viability,NCI-H1993; first compound 0.2 µM,0.482
